From patent US7132547B2, “Preventives/remedies for urinary disturbance” (priority 2001, dated 2006)

Experiments:
[1] = biological target: T1, human erythrocyte-derived acetylcholinesterase (Homo sapiens, UniProt P22303); assay: Measurement of acetylcholinesterase inhibitory activity (acetylthiocholine / Ellman method); assay type: biochemical; details: 50% inhibition concentration, repeated at least three times, read-out: AchE: IC50
T1 construct: Human erythrocyte-drived acetylcholinesterase (Sigma) was dissolved in distilled water; purchased Sigma; host or cells: human erythrocytes (natural source)
T1 sequence (P22303 32-617 isoform P22303-2 limits assumed): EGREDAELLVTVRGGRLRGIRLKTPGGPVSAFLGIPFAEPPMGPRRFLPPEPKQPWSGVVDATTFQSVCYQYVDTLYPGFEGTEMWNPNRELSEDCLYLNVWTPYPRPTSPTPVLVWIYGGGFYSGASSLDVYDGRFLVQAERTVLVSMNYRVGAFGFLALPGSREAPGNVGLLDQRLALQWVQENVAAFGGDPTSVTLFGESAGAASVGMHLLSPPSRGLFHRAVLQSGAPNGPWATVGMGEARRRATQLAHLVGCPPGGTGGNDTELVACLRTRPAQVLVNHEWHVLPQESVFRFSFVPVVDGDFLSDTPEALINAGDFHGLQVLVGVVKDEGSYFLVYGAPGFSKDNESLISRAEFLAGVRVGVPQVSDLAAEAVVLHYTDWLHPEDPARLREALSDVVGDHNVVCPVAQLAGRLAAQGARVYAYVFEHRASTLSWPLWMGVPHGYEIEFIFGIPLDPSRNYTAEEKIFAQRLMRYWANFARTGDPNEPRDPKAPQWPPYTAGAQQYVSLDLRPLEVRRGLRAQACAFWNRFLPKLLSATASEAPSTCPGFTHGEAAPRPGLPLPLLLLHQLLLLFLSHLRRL
Experimental: a) Measurement of Acetylcholinesterase Inhibitory Activity
Acetylcholinesterase inhibitory activity of Example compounds was measured using human erythrocyte-derived acetylcholinesterase by an acetylthiocholine method (Ellman method).
Human erythrocyte-drived acetylcholinesterase (Sigma) was dissolved in distilled water to the concentration of 0.2 IU/mL to obtain an enzyme specimen. 20 μL of a drug solution, 30 μL of 80 mM Tris-HCL (pH 7.4), 50 μL of an enzyme specimen and 50 μL of 5 mM 5,5-dithio-bis (2-nitrobenzoic acid)(Sigma) were dispensed on a 96-well microplate, and this was shaken for 10 seconds. 50 μL of 4 mM acetylthiocholine iodide (Sigma) was added, this was shaken again and, immediately after, increase in absorbance at 414 nm was measured at 30 second intervals for 10 minutes. Enzyme activity was measured by the following equation: R=5.74×10^−7×ΔA (wherein R represents enzyme activity (mol), and ΔA represents increase in absorbance at 414 nm)
Regarding each compound, the experiment was repeated at least three times to obtain 50% inhibition concentration (IC50). According to the similar method to the above-mentioned, acetylcholinesterase inhibitory activity of distigmine which is a known acetylcholinesterase inhibitor was measured.

[2] = test system: Hartley male guinea pigs; assay: Effect on blood pressure in anesthetized guinea pigs; assay type: in vivo, guinea pig; details: tamsulosin 0.01 mg/kg, Example 20 0.1 mg/kg
Experimental: Hartley male guinea pigs (Slc) weighing 300 to 350 g was anesthetized with urethane (1.2 g/kg), and retained, a cervical region was incised to expose a left common carotid artery. A polyethylene tube filled with physiological saline containing heparin (10 U.I./ml) was inserted into an artery, and blood pressure was measured with a pressure transducer. A cannulae for administering test compound was inserted into a vein at an end of left hind leg, and a test compound dissolved in distilled water was administered therethrough at 0.5 mL/kg. The blood pressure was recorded at 20 Hz using an analogue data inputting apparatus (MP-100, BIOPAC Systems), and analyzed by analyzing software (AcqKnowledge 3.5.3, BIOPAC Systems). Example compound and tamsulosin were studied for a dose at which effects were recognized in the aforementioned test a (Pressure Flow Study), and an average blood pressure just before administration of test compound and an average blood pressure 15 minutes after administration were measured. Data were statistically treated by Paired t-test.

[3] = test system: Hartley male guinea pigs loaded with phenylephrine; assay: Pressure Flow Study using guinea pigs loaded with phenylephrine; assay type: in vivo, guinea pig; details: i.v., tamsulosin 0.01 mg/kg, Example 20 0.1 mg/kg, urethane-anesthetized, phenylephrine 3 μg/animal/min
Experimental: Hartley male guinea pigs (Slc) weighing 300 to 350 g was anesthetized with urethane (1.2 g/kg, i.p.), and a median was incised to expose bladder. Two polyethylene tubes were inserted into bladder, and one of them was used for injecting a physiological saline and the other was used for measuring a bladder internal pressure. A cannulae was inserted into a left femoral vein, and phenylephrine was continuously administered intravenously at 3 μg/animal/min until the completion of experiment. A physiological saline was injected into bladder at a rate of 0.3 mL/min, and injection was stopped when urination was confirmed. The urinated urine weight was measured with an electron balance (HX-400, A & D) at real time. Analogue data of bladder internal pressure and urine weight were inputted into an AD transducer (MP-100, BIOPAC Systems), and digital signals were analyzed with exclusive analyzing software (AcqKnowledge 3.5.3, BIOPAC Systems). The sampling rate of data was 10 Hz, and data of urination amount and urine flow rate were subjected to a lowcut filter at 0.5 Hz in order to remove noises. The value of urine weight was differentiated to calculate urine flow rate (Q), and maximum urine flow rate (Qmax) at urination and bladder internal pressure (Pves (Qmax)) at maximum urine flow were calculated. The urination weight 1 g was converted into 1 mL to calculate the urination amount, and divided by bladder volume to obtain voiding efficiency (Voiding Efficiency). Example compound was dissolved in DMSO, and the solution was intravenously administered at 0.5 mL/kg. 10 minutes after administration of test compound, urinary reflection was recorded again, and change in urine flow rate (ΔQmax), and change in bladder internal pressure (ΔPves(Qmax)) and voiding efficiency were assessed. The change in urine flow rate (ΔQmax) and change in bladder internal pressure (ΔPves. (Qmax)) were an amount of change (Δ value) obtained by subtracting each value before administration of test compound from each value after administration, and voiding efficiency was assessed by a relative value (% of pre-value) of after administration of test compound relative to before administration. Tamsulosin which is a known α1 receptor antagonist was measured similarly. A significance diffenence was tested by a Dunnett test by comparing with each value of a vehicle (DMSO)-administered group.

[4] = 10 minutes after administration minus before

## COc1ccccc1CCNCCCCCC(=O)c1cc2c3c(c1)CCN3C(=O)CC2.Cl [Example 20, 8-(6-[[2-(2-Methoxyphenyl)ethyl]amino]hexanoyl]-1,2,5,6-tetrahydro-4H-pyrrolo[3,2,1-ij]quinolin-4-one hydrochloride]
[1]
  IC50: 179 nM
[2]; average blood pressure 15 minutes after i.v. administration
  Blood pressure, after administration: 54.6 ± 2.8 mmHg
[2]; average blood pressure just before i.v. administration
  Blood pressure, before administration: 53.5 ± 3.6 mmHg
[3]; [4]
  change in bladder internal pressure (ΔPves(Qmax)): −1.73 ± 1.54 cmH2O
  change in maximum urine flow rate (ΔQmax): 0.060 ± 0.016 mL/s
[3]; after administration relative to before
  voiding efficiency (% of pre-value): 150.1 ± 20.1 %
